Assay results from patent publication US20260224590A1 (priority 2023, published 2026).
Read-outs that look alike come from different tables or passages of the source.

Tests used:
5-HT2A receptor [1] = biological target: T1, 5-HT2A receptor (Homo sapiens, UniProt P28223); experiment: 5-HT2A receptor downstream β-arrestin2 recruitment in HEK-293T cells; assay type: cell-based; design: expressed in transfected cells; host or cells: HEK-293T (ATCC, CRL-11268); conditions: for β-arrestin2 signaling agonistic activity (% in parentheses): HEK-293T, percentage printed in parentheses beside the nM value, not defined; for signaling pathway selectivity at the 5-HT2A receptor (β-arrestin2 versus G protein): statement on Table 2
T1 sequence (P28223 whole entry): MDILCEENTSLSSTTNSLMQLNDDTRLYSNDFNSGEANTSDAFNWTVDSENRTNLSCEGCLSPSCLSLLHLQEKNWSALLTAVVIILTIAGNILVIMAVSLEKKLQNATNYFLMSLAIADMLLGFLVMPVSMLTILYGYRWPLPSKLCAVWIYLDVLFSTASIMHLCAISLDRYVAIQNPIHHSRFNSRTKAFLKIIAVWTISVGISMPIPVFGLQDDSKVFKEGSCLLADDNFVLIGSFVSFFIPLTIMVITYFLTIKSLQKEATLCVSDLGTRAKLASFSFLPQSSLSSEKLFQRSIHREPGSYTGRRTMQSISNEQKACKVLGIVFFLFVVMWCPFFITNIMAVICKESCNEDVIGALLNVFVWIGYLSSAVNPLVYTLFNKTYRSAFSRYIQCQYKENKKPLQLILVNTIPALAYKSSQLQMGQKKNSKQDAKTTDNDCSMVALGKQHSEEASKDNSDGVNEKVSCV
Protocol: (§1) On the second day, the confluent cells from a 6 cm culture dish were digested and reseeded into a 96-well plate at a volume of 100 μL of culture medium per well. On the third day, the drugs were added for testing. The 96-well plate was taken out from the cell incubator to decant the culture medium. 40 μL of the substrate coelenterazine 400a (final concentration 5 μM) was added to each well, and then 20 μL of different drugs were added sequentially from left to right, ensuring that the final concentration of the drug decreased gradually from bottom to top, with two replicates per treatment. Finally, the prepared samples were loaded on a plate reader for signal quantification. The readout values reflected the recruitment of β-arrestin2 to the membrane or the dissociation of G protein trimer. The former indicated the degree of activation of the downstream β-arrestin2 signaling pathway mediated by the 5-HT2A receptor, and the latter indicated the degree of activation of the downstream G protein signaling pathway mediated by the 5-HT2A receptor.

5-HT2A receptor [2] = biological target: T1, 5-HT2A receptor; experiment: radioligand competitive binding assay, affinity for the 5-HT2A receptor; conditions: [3H]-LSD competition, 293T membranes transiently expressing 5-HT2A receptor
C57BL/6J mice = experiment: head-twitch response in mice (hallucinogenic effects); assay type: in vivo; conditions: intraperitoneal injection, first 30 minutes, all doses tested
Description: Method: The head-twitch response in mice was detected via oscillatory signals to characterize hallucinogenic effects. Mice (strain C57BL/6J, purchased from Shanghai Lingchang Biotech Co., Ltd.) were anesthetized with 2% isoflurane. A small portion of the scalp was removed from the center of the dorsal cranium. A custom-made small neodymium magnet (4 mm×4 mm×2 mm) was attached to the center of the dorsal cranium using dental resin. The magnet N-S poles were kept parallel to the dorsoventral aspect of the implant. The mice were allowed to recover for 1 week before testing. To record precise head movements, the mice were placed in a glass beaker with a diameter of 12 cm, surrounded by 150 turns of #30 enameled copper wire. The output signal from the coil was recorded using a PowerLab/4SP instrument installed with LabChart V8.1.16 software. Coil voltage was amplified, low-pass filtered at 10 kHz to remove radio frequency interference, and sampled at 40 kHz. For the detection of head-twitch response in mice, LabChart data were processed with a digital band-pass filter at 40 to 200 Hz. The head-twitch response in mice was identified by searching for sinusoidal wavelets that met the following criteria: 1) containing more than two bipolar peaks; 2) amplitude exceeding background noise level; 3) duration less than 120 milliseconds. 1 hour prior to the test, the mice were transferred to the test room for acclimatization. Subsequently, the mice were placed in the beaker for 30 minutes, and baseline head-twitch response values were recorded. Immediately after baseline recording, the mice were injected intraperitoneally with the test compound, and head-twitch response values were recorded for 1 to 2 hours post-dose, depending on the compound used. Statistical values were taken from the first 30 minutes.

[3] = system: C57BL/6 mice, corticosterone in drinking water; experiment: tail suspension test after 21 days of corticosterone exposure; assay type: in vivo; conditions: corticosterone model
Protocol: Antidepressant efficacy test method: Male C57BL/6 mice (8 weeks old, purchased from Shanghai Lingchang Biotech Co., Ltd.) were administered a solution of corticosterone in their drinking water at a concentration of 25 μg/mL using drinking water bottles for 21 days. Mice were maintained on a 12-hour light cycle. Corticosterone-containing drinking water was refreshed every other day for the first two weeks, and gradually replaced with corticosterone-free drinking water every two days for the last week. […] TST procedure: mice in the control group and the administration group were suspended by their tails with tape for 6 minutes, and their behavior was recorded by a video camera. The immobility time during the last 4 minutes was manually timed and assessed by an observer who was unaware of the treatment conditions.

in vivo = conditions: male, C57, mouse, plasma, ip, 5 mg/kg
Protocol: (§3) The concentration of the compound in mouse plasma was determined using LC-MS/MS, and the relevant pharmacokinetic parameters were calculated to investigate the pharmacokinetic characteristics of the compound in mice.
(§4) Experimental design: 60 male C57 mice (purchased from Suzhou JOINN Laboratory Animal Co., Ltd.) were randomly divided into groups based on weight, with 3 mice per group. The mice were fasted with water ad libitum for 12 to 14 hours one day before test-article administration and fed 4 hours after the administration. The route of administration was intraperitoneal (IP), with a dosing concentration of 1 mg/mL, and a solvent formulation of 10% DMSO+90% saline.
(§5) Sample collection: 0.1 mL of blood was collected from the orbit under isoflurane anesthesia before and after test-article administration, transferred to EDTA K2 tubes, and placed on an ice bath. The samples were centrifuged at 5000 rpm for 10 minutes at 4° C., and the plasma was collected. […] Prior to analysis, all plasma samples were stored at −80° C.
(§6) Data processing: Drug concentrations in plasma and brain tissues were measured using LC-MS (API4000QTRAP triple quadrupole tandem mass spectrometer, equipped with an electrospray ionization source (ESI)). The data collection and control system software utilized was Analyst 1.5.1 (Applied Biosystems). The sample peak integration in the spectrum was conducted automatically; the ratio of the sample peak area to the internal standard peak area was used as an indicator to perform regression with the concentration of the sample. Regression method: Linear regression with a weighting factor of 1/X^2. Pharmacokinetic parameters were analyzed using a non-compartmental model in WinNonlin Professional v6.3 (Pharsight, USA). Cmax is the measured maximum plasma concentration, the area under the plasma concentration-time curve (AUC(0→t)) was calculated by the trapezoidal method, and Tmax is the time to reach peak plasma concentration after administration. Experimental data are presented as “Mean±Standard Deviation” (Mean±SD, n≥3) or “Mean” (n=2).

dopamine D2 receptor = biological target: T2, dopamine D2 receptor (Homo sapiens, UniProt P14416); experiment: radioligand competitive binding assay, affinity for the dopamine D2 receptor
T2 construct: expressed in transfected cells; host or cells: HEK-293T (ATCC, CRL-11268)
T2 sequence (P14416 whole entry, species assumed): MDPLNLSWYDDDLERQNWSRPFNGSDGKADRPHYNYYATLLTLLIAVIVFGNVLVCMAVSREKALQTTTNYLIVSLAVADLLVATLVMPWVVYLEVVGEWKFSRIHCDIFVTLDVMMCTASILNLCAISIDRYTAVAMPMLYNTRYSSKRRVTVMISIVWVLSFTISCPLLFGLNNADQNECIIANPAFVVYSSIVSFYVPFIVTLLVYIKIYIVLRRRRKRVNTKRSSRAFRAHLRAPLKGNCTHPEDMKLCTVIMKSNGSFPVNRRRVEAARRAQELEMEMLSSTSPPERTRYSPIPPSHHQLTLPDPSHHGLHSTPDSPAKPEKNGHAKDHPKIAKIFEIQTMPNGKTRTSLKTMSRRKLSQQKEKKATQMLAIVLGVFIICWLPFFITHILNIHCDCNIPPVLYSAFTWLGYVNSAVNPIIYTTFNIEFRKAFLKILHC
Protocol: Method: The affinity of the compounds of the present disclosure for the dopamine D2 receptor was determined using a radioligand competitive binding assay as follows. In the first step, a cell membrane component containing dopamine D2 receptor was prepared. […] 48 hours post-transfection, the 10 cm culture dish was taken out from the cell incubator and the cultured cells had expressed the dopamine D2 receptor. The culture medium was aspirated using a vacuum pump, and 3 mL of lysis buffer was added to each culture dish. The cells were then placed in a cold room at 4° C. for 10 minutes. After the cells were detached, they were transferred to a 15 mL centrifuge tube and centrifuged at 1500 rpm for 5 minutes at 4° C., and the supernatant was discarded. The cell pellet was transferred to a tissue homogenizer, and 3 mL of lysis buffer was added. Sufficient grinding was applied to break the cells. The cell suspension was then equally aliquoted into several Eppendorf tubes and centrifuged at 12000 rpm for 5 minutes at 4° C., and the supernatant was discarded. The resulting precipitate was the cell membrane component containing the dopamine D2 receptor. […] The machine readout value reflected the amount of [3H]-Methylspiperone bound on the membrane, and after further data processing, the affinity Ki values of different compounds for the dopamine D2 receptor were obtained.

[4] = system: C57BL/6J wild-type mice, acute restraint stress; experiment: tail suspension test (TST) after acute restraint stress; assay type: in vivo; conditions: 5 h acute restraint stress, intraperitoneal injection, test after 30 minutes
Protocol: (§2) Method: Acute restraint stress (ARS) is frequently used to induce a depressive state in mice. The forced swim test (FST) and tail suspension test (TST) are currently the most commonly used models for inferring “depression-like” behaviors. C57BL/6J wild-type mice (over 8 weeks old, purchased from Shanghai Lingchang Biotech Co., Ltd.) were restrained individually in a rodent restraint device for 5 hours. The mice were restricted from all body movements, but only minimal pain was introduced. During the ARS experiment, the mice were deprived of both food and water. After 5 hours of restraint, a separate group of mice was released and immediately injected intraperitoneally with the test compound. After 30 minutes of recovery, the behavioral changes of the mice were assessed through the Forced Swim Test (FST) or Tail Suspension Test (TST). […] All mice were forced to swim for 6 minutes, and their behavior was recorded using a video camera. The immobility time during the last 4 minutes of the test was recorded. […] In the TST, mice in the control group and those subjected to restraint stress were suspended by their tails with tape for 6 minutes, and their behavior was recorded using a video camera. The immobility time during the last 4 minutes was manually timed and assessed by an observer who was unaware of the treatment conditions.

[5] = system: C57BL/6J wild-type mice, acute restraint stress; experiment: forced swim test (FST) after acute restraint stress; assay type: in vivo; conditions: 5 h acute restraint stress, intraperitoneal injection, test after 30 minutes
Protocol: as §2

[6] = 10 mg/kg IP, male C57 mice
Protocol: as §3, §4, §5, §6

5-HT2A receptor [7] = biological target: T1, 5-HT2A receptor; experiment: 5-HT2A receptor downstream G protein (Gq) signaling, G protein trimer dissociation in HEK-293T cells; assay type: cell-based; design: expressed in transfected cells; host or cells: HEK-293T (ATCC, CRL-11268); conditions: percentage printed in parentheses beside the nM value, not defined
Protocol: as §1

[8] = depressive episodes associated with bipolar I or II disorder; Calabrese et al. 2021; cited from earlier work
[9] = Ki, affinity for the 5-HT2A receptor
[10] = read-out: Ki, affinity for the 5-HT2A receptor

For `COc1ccccc1CCCN1CC[C@@H]2[C@H](C1)c1cccc3c1N2CCCS3` [I-27], the “β-arrestin2 signaling agonistic activity (% in parentheses)” value (5-HT2A receptor [1]) was “(35.7%)” and the “signaling pathway selectivity at the 5-HT2A receptor (β-arrestin2 versus G protein)” value (from here on “signaling pathway selectivity”) (5-HT2A receptor [1]) was “selectively activate the recruitment of β-arrestin2 mediated by the 5-HT2A receptor, without activating the G protein signaling pathway”.

With `COc1ccccc1CCN1CCC2C(C1)c1cccc3c1N2CCCN3C` (single isomer, unassigned) [I-13] the “β-arrestin2 signaling agonistic activity (% in parentheses)” value (5-HT2A receptor [1]) was “(51.4%)” and the “signaling pathway selectivity” value (5-HT2A receptor [1]) was “selectively activate the recruitment of β-arrestin2 mediated by the 5-HT2A receptor, without activating the G protein signaling pathway”.

`COc1ccccc1CCCN1CCC2C(C1)c1cccc3c1N2CCC3` (single isomer, unassigned) [I-18] gave a Ki (5-HT2A receptor [2]; [9]) of 57 nM.

With `COc1ccccc1CCCN1CCC2C(C1)c1cccc3c1N2CCO3` (single isomer, unassigned) [I-23] the “hallucinogenic effects (head-twitch response)” value (shortened to “hallucinogenic effects”) (C57BL/6J mice) was “did not induce hallucinogenic effects”, the “antidepressant effect in the mouse tail suspension test” value ([3]; 10 mg/kg single injection, after 7 days) was “remained significant” and the “antidepressant effect in the mouse tail suspension test” value ([3]; 10 mg/kg single injection, after 14 days) was “remained significant”. For the same compound, the “antidepressant effect in the mouse tail suspension test” value ([3]; one day after a single administration) was “significant antidepressant effect”, the AUC0-inf (in vivo) was 540 ng·h/mL and the “β-arrestin2 signaling agonistic activity (% in parentheses)” value (5-HT2A receptor [1]) was “(51.6%)”.

In the case of `COc1ccccc1CCCN1CC[C@H]2[C@@H](C1)c1cccc3c1N2CCN3C` [I-10], the “affinity for the dopamine receptor, in words” value (dopamine D2 receptor) is reported as “weak affinity”, the “antidepressant effect in the TST (immobility time)” value [4] is reported as “significant antidepressant effect” and the “antidepressant effect in the FST (immobility time)” value [5] is reported as “significant antidepressant effect”. The “hallucinogenic effects” value (C57BL/6J mice) was “did not induce hallucinogenic effects”, the AUC0-inf ([6]; brain) was 1346 h · ng · mL^−1 or ng · g^−1 and the AUC0-t ([6]; brain) was 1335 h · ng · mL^−1 or ng · g^−1. The AUMC0-inf ([6]; brain) was 2054 h · h · ng · mL^−1 or ng · g^−, the AUMC0-t ([6]; brain) was 1979 h · h · ng · mL^−1 or ng · g^− and the Cmax ([6]; brain) was 566 ng/g. The MRT ([6]; brain) was 91.8 min, the T1/2 ([6]; brain) was 48.1 min and the tmax ([6]; brain) was 30 min. For the same compound, the AUC0-inf ([6]; plasma) was 582 ng·h/mL, the AUC0-t ([6]; plasma) was 576 ng·h/mL and the Cmax ([6]; plasma) was 225 ng/mL. The MRT ([6]; plasma) was 127 min, the T1/2 ([6]; plasma) was 63.6 min and the tmax ([6]; plasma) was 4.98 min. For the same compound, the Ki (5-HT2A receptor [2]; [10]) was 13 nM and the “β-arrestin2 signaling agonistic activity (% in parentheses)” value (5-HT2A receptor [1]) was “(12.7%)”.

In the case of `COc1ccccc1CCCN1CCC2C(C1)c1cccc3c1N2CCCN3C` (single isomer, unassigned) [I-15], the Ki (5-HT2A receptor [2]; [9]) is reported as 7 nM, the “β-arrestin2 signaling agonistic activity (% in parentheses)” value (5-HT2A receptor [1]) is reported as “(24.3%)” and the “signaling pathway selectivity” value (5-HT2A receptor [1]) is reported as “selectively activate the recruitment of β-arrestin2 mediated by the 5-HT2A receptor, without activating the G protein signaling pathway”.

In the case of `COc1cccc(CCN2CC[C@H]3[C@@H](C2)c2cccc4c2N3CCN4C)c1OC` [I-6], the Ki (5-HT2A receptor [2]; [10]) is reported as 5240 nM.

In the case of `CN1CCN2c3c(cccc31)[C@@H]1CN(Cc3ccccc3O)CC[C@@H]12` [I-2, 2-(((6bR,10aS)-3-methyl-2,3,6b,9,10,10a-hexahydro-1H-pyrido[3′,4′:4,5]pyrrolo[1,2,3-de]quinoxalin-8 (7H)-yl)methyl)phenol], the Ki (5-HT2A receptor [2]; [10]) is reported as 525 nM, the “Gq signaling agonistic activity (% in parentheses)” value (5-HT2A receptor [7]) is reported as “(65.3%)” and the “β-arrestin2 signaling agonistic activity (% in parentheses)” value (5-HT2A receptor [1]) is reported as “(68.4%)”.

`COc1ccccc1CCCN1CCC2C(C1)c1cccc3c1N2CCCN3C` (single isomer, unassigned) [I-14] showed a Ki (5-HT2A receptor [2]; [9]) of 28 nM.

With `CN1CCN2c3c(cccc31)[C@@H]1CN(CCc3ccccc3O)CC[C@@H]12` [I-9, 2-(2-((6bR,10aS)-3-methyl-2,3,6b,9,10,10a-hexahydro-1H-pyrido[3′,4′:4,5]pyrrolo[1,2,3-de]quinoxalin-8 (7H)-yl)ethyl)phenol] the “β-arrestin2 signaling agonistic activity (% in parentheses)” value (5-HT2A receptor [1]) was “(14.4%)”.

With `CN1CCN2c3c(cccc31)[C@@H]1CN(CCCc3ccccc3O)CC[C@@H]12` [I-11, 2-(3-((6bR,10aS)-3-methyl-2,3,6b,9,10,10a-hexahydro-1H-pyrido[3′,4′:4,5]pyrrolo[1,2,3-de]quinoxalin-8 (7H)-yl)propyl)phenol] the “Gq signaling agonistic activity (% in parentheses)” value (5-HT2A receptor [7]) was “(9.7%)” and the “β-arrestin2 signaling agonistic activity (% in parentheses)” value (5-HT2A receptor [1]) was “(36.8%)”.

For `COc1ccccc1CCN1CC[C@H]2[C@@H](C1)c1cccc3c1N2CCN3C` [I-3], the “affinity for the dopamine receptor, in words” value (dopamine D2 receptor) was “weak affinity”, the “antidepressant effect in the TST (immobility time)” value [4] was “significant antidepressant effect” and the “antidepressant effect in the FST (immobility time)” value [5] was “significant antidepressant effect”. The “hallucinogenic effects” value (C57BL/6J mice) was “did not induce hallucinogenic effects”, the Ki (5-HT2A receptor [2]; [10]) was 17 nM and the “Gq signaling agonistic activity (% in parentheses)” value (5-HT2A receptor [7]) was “(20.2%)”. For the same compound, the “β-arrestin2 signaling agonistic activity (% in parentheses)” value (5-HT2A receptor [1]) was “(39.0%)”.

With `COc1cccc(CCN2CC[C@H]3[C@@H](C2)c2cccc4c2N3CCN4C)c1` [I-4] the Ki (5-HT2A receptor [2]; [10]) was 88 nM, the “Gq signaling agonistic activity (% in parentheses)” value (5-HT2A receptor [7]) was “(13.7%)” and the “β-arrestin2 signaling agonistic activity (% in parentheses)” value (5-HT2A receptor [1]) was “(44.2%)”.

With `COc1ccccc1CCCN1CCC2C(C1)c1cccc3c1N2CCC3` (single isomer, unassigned) [I-19] the “β-arrestin2 signaling agonistic activity (% in parentheses)” value (5-HT2A receptor [1]) was “(59.4%)” and the “signaling pathway selectivity” value (5-HT2A receptor [1]) was “selectively activate the recruitment of β-arrestin2 mediated by the 5-HT2A receptor, without activating the G protein signaling pathway”.

With `COc1ccc(CCN2CC[C@H]3[C@@H](C2)c2cccc4c2N3CCN4C)cc1` [I-5] the Ki (5-HT2A receptor [2]; [10]) was 126 nM and the “β-arrestin2 signaling agonistic activity (% in parentheses)” value (5-HT2A receptor [1]) was “(3.2%)”.

For `CN1CCN2c3c(cccc31)[C@@H]1CN(CCCC(=O)c3ccc(F)cc3)CC[C@@H]12` [lumateperone], the patient response rate [8] is listed as 51.1%.
